These results are taken from publication PMC10758829 (Heliyon, 2023).

As usually defined, the IC50 is the midpoint of a concentration-inhibition curve. The Vmax is the rate approached at saturating substrate.

For data set [1], the target named is dipeptidyl peptidase IV (DPP-IV) (Homo sapiens, UniProt P27487). Description: Gly-Pro-pNA chromogenic assay with recombinant enzyme. It is filed as biochemical.
Data set [2] relates to NCC(=O)N1CCC[C@H]1C(=O)Nc1ccc([N+](=O)[O-])cc1. Nature of the data set: purified protein. It is filed as biochemical, Homo sapiens.

Sequence of dipeptidyl peptidase IV (DPP-IV) (P27487 39-766): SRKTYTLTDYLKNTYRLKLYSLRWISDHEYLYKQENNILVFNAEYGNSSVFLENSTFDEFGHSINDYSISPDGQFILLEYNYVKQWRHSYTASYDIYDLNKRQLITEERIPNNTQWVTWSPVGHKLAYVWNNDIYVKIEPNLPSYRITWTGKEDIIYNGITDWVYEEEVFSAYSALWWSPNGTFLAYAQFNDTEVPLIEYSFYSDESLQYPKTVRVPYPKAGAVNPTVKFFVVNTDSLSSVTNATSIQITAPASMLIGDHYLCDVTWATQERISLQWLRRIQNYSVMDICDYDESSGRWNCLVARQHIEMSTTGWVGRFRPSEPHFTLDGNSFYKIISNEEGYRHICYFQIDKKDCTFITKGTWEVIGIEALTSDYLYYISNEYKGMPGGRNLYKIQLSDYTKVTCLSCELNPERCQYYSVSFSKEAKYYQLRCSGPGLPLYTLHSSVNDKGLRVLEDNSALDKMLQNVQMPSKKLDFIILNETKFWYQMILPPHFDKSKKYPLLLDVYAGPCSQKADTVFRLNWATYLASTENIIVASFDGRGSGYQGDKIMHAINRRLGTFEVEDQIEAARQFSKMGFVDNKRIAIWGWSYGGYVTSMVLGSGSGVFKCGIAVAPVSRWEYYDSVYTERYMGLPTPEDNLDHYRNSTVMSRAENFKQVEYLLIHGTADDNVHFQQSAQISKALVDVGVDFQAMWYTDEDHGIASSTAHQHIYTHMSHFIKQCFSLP

Consider `C=C(C)[C@@H]1CCC(C)=C[C@H]1c1c(O)cc(CCCCC)cc1O` [CBD, cannabidiol], for which, in data set [1], the IC50 was 21.9 µM. Still for that read-out and setting: as for `CCCCCc1cc(O)c(C/C=C(\C)CCC=C(C)C)c(O)c1` [CBG, cannabigerol], the figure is 20.2 µM. `CCCCCc1cc(O)c2c(c1)OC(C)(C)c1ccc(C)cc1-2` [CBN, cannabinol]: the IC50 in data set [1] was 12.9 µM.

Turning to “dipeptidyl peptidase IV (DPP-IV) (Homo sapiens)”, in data set [2], the Vmax worked out at 1200 µM/min.
